The results in this text go back to ChEMBL document CHEMBL1136629, “Amphipathic 3-phenyl-7-propylbenzisoxazoles; human pPaR gamma, delta and alpha agonists” (Bioorg Med Chem Lett, 2003).

Series [1] can be described thus: AUC of compound for a 2 mpk po dose of the sodium salt in rats. Format: ADME, organism-based. The note with it: rat, plasma, 2 mg/kg.
The nature of series [2]: Bioavailability of compound was determined. Type of series: ADME, organism-based. The note with it: eutheria, in vivo.
In series [3] the target is T1, Peroxisome proliferator-activated receptor gamma (Homo sapiens, UniProt P37231).
T1 sequence (P37231 whole entry): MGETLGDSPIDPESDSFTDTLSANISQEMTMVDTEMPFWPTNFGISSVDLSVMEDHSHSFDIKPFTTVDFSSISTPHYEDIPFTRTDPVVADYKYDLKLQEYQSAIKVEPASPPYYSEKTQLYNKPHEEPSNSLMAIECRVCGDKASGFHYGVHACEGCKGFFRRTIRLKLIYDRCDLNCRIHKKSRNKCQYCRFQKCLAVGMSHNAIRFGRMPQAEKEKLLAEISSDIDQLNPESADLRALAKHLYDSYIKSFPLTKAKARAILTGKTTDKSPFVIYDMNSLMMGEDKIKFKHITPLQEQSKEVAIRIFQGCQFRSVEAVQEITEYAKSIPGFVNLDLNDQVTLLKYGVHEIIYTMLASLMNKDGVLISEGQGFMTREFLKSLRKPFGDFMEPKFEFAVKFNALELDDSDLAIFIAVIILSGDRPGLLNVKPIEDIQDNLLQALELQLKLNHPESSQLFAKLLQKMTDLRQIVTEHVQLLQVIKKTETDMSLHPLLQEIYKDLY
Nature of the series: In vitro binding affinity towards human peroxisome proliferator activated receptor gamma (PPAR gamma).

Series [4] has as its target T1, Peroxisome proliferator-activated receptor gamma. The series can be described thus: Agonistic activity was determined in COS1 cells transfected with GAL 4-PPAR gamma receptor. Type of series: functional, cell-based, COS-1.
The target in series [5] is T2, Peroxisome proliferator-activated receptor delta (Homo sapiens, UniProt Q03181).
T2 sequence (Q03181 whole entry): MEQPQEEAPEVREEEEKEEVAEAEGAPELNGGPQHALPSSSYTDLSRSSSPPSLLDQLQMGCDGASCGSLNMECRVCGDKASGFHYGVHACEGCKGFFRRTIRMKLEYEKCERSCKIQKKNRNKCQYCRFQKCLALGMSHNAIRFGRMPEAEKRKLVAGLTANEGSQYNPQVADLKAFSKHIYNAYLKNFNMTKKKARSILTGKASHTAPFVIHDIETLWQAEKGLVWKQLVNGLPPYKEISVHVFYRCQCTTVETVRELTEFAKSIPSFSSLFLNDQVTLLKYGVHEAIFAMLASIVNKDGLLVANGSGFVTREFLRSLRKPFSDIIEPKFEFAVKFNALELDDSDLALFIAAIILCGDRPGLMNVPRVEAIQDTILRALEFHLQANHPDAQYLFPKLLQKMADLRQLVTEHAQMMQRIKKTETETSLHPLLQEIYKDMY
Nature of the series: Agonistic activity was determined in COS1 cells transfected with GAL 4-PPAR delta receptor. Type of series: functional, cell-based, COS-1.

Series [6] deals with T3, Peroxisome proliferator-activated receptor alpha (Homo sapiens, UniProt Q07869).
T3 sequence (Q07869 whole entry): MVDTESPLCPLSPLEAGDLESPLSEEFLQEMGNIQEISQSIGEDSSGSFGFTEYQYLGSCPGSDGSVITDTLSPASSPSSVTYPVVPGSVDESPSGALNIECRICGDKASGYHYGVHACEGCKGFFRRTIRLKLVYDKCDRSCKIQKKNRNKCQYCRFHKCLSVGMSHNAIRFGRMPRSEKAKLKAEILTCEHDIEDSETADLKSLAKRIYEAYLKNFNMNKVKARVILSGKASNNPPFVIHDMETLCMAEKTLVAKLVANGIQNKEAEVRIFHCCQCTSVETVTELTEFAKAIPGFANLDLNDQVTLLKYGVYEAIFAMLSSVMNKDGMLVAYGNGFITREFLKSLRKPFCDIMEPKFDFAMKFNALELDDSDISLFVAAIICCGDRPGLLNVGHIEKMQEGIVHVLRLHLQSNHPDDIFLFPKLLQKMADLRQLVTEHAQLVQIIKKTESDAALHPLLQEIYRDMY
The series can be described thus: Agonistic activity was determined in COS1 cells transfected with GAL 4-PPAR alpha receptor. Type of series: functional, cell-based, COS-1.

For series [7], the target named is T3, Peroxisome proliferator-activated receptor alpha. The series can be described thus: In vitro binding affinity towards human peroxisome proliferator activated receptor alpha (PPAR alpha).
Series [8] deals with T2, Peroxisome proliferator-activated receptor delta.
Description: In vitro binding affinity towards human peroxisome proliferator activated receptor delta (PPAR delta)

In the case of `CCCc1c(OCCCCOc2cccc(CC(=O)O)c2)ccc2c(-c3ccccc3)noc12`, the AUC in series [1] was 4.2 µM·h. This molecule also displayed a bioavailability in series [2] of 76%. The inhibition constant Ki came to 3.1 nM in series [3], 7.2 nM in series [7] and 0.3 nM in series [8]. The EC50 was 6 nM in series [4], 20 nM in series [5] and 5 nM in series [6].
